# Key:
# sugar beet = test: Test B pre/postemergence sugar beet; assay type: in vivo, Beta vulgaris
# Procedure, shortened: (§1)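 Response is a visual 0-to-10 score relative to untreated plants, where 0 means no effect and 10 means complete control, taken twelve to sixteen days after application. Treatments went onto soil at planting and onto foliage of 1- to 4-leaf plants, using a surfactant-containing non-phytotoxic solvent.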
# rape = test: Test B pre/postemergence rape; assay type: in vivo, Brassica napus
# Procedure, shortened: as §1
# wheat = test: Test B pre/postemergence wheat; assay type: in vivo, Triticum aestivum
# Procedure, shortened: as §1
# giant foxtail = test: Test B pre/postemergence giant foxtail; assay type: in vivo, Setaria faberii
# Procedure, shortened: as §1
# wild oat = test: Test B pre/postemergence wild oat; assay type: in vivo, Avena fatua
# Procedure, shortened: as §1
# morningglory = test: Test B pre/postemergence morningglory; assay type: in vivo, Ipomoea hederacea
# Procedure, shortened: as §1
# pigweed = test: Test B pre/postemergence pigweed; assay type: in vivo, Amaranthus retroflexus
# Procedure, shortened: as §1
# rice = test: Test B flood test rice; assay type: in vivo, Oryza sativa
# Procedure, shortened: (§2)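 Flood test on plants grown to the 2-leaf stage; treated plants kept in greenhouse twelve to sixteen days, then visually rated against controls on a 0 (no effect) to 10 (complete control) scale.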
# purple nutsedge = test: Test B pre/postemergence purple nutsedge; assay type: in vivo, Cyperus rotundus
# Procedure, shortened: as §1
# duck salad = test: Test B flood test duck salad; assay type: in vivo, Heteranthera limosa
# Procedure, shortened: as §2
# soybean = test: Test B pre/postemergence soybean; assay type: in vivo, Glycine max
# Procedure, shortened: as §1
# crabgrass = test: Test B pre/postemergence crabgrass; assay type: in vivo, Digitaria sanguinalis
# Procedure, shortened: as §1
# bamyardgrass = test: Test B flood test barnyardgrass; assay type: in vivo, Echinochloa crus-galli
# Procedure, shortened: as §2
# corn = test: Test B pre/postemergence corn; assay type: in vivo, Zea mays
# Procedure, shortened: as §1
# cocklebur = test: Test B pre/postemergence cocklebur; assay type: in vivo, Xanthium strumarium
# Procedure, shortened: as §1
# velvetleaf = test: Test B pre/postemergence velvetleaf; assay type: in vivo, Abutilon theophrasti
# Procedure, shortened: as §1
# [1] = Preemergence, Rate 62 g/ha, scale of 0 to 10 where 0 is no effect and 10 is complete control
# [2] = Preemergence, Rate 250 g/ha, scale of 0 to 10 where 0 is no effect and 10 is complete control
# [3] = Preemergence, Rate 500 g/ha, scale of 0 to 10 where 0 is no effect and 10 is complete control
# [4] = Rate 62 g/ha, Postemergence, scale 0 to 10 (0 no effect, 10 complete control)
# [5] = Rate 125 g/ha, Postemergence, scale of 0 to 10 where 0 is no effect and 10 is complete control
# [6] = Rate 250 g/ha, Postemergence, scale of 0 to 10 where 0 is no effect and 10 is complete control
# [7] = Rate 62 g/ha, headed Pre-emergence (flood test species), scale 0 to 10 (0 no effect, 10 complete control)
# [8] = Rate 125 g/ha, Pre-emergence, flood test species, scale 0 to 10 where 0 is no effect and 10 is complete control
# [9] = Rate 250 g/ha, Pre-emergence, flood-test species, scale 0 to 10, 0 is no effect, 10 is complete control
# [10] = Rate 500 g/ha, Pre-emergence, flood test species, scale 0 to 10 (0 no effect, 10 complete control)
# [11] = Rate 500 g/ha, Postemergence, scale 0 to 10, 0 no effect, 10 complete control
structure (smiles),measurement,setting,value
CC(C)N(C(=O)n1oc(=O)n(C2CCCCO2)c1=O)c1ccc(F)cc1 (stereo not drawn) [Compound 311],Sugarbeets plant response rating,sugar beet; [1],0
same,Sugarbeets plant response rating (0 to 10 scale),"sugar beet; Preemergence, Rate 125 g/ha",0
same,Sugarbeets plant response rating,sugar beet; [2],0
same,Sugarbeets plant response rating,sugar beet; [3],0
same,Sugarbeets plant response rating,sugar beet; [4],0
same,Sugarbeets plant response rating,sugar beet; [5],0
same,"Plant response rating, Sugarbeets",sugar beet; [6],0
same,Rape plant response rating,rape; [1],0
same,Rape plant response rating (0 to 10 scale),"rape; Preemergence, Rate 125 g/ha",0
same,Rape plant response rating,rape; [2],0
same,Rape plant response rating,rape; [3],0
same,Rape plant response rating,rape; [4],0
same,Rape plant response rating,rape; [5],0
same,"Plant response rating, Rape",rape; [6],0
same,Wheat plant response rating,wheat; [1],0
same,Wheat plant response rating (0 to 10 scale),"wheat; Preemergence, Rate 125 g/ha",0
same,Wheat plant response rating,wheat; [2],0
same,Wheat plant response rating,wheat; [3],0
same,Wheat plant response rating,wheat; [4],0
same,Wheat plant response rating,wheat; [5],0
same,"Plant response rating, Wheat",wheat; [6],0
same,Giant foxtail plant response rating,giant foxtail; [1],0
same,Giant foxtail plant response rating (0 to 10 scale),"giant foxtail; Preemergence, Rate 125 g/ha",0
same,Giant foxtail plant response rating,giant foxtail; [2],0
same,Giant foxtail plant response rating,giant foxtail; [3],0
same,Giant foxtail plant response rating,giant foxtail; [4],0
same,Giant foxtail plant response rating,giant foxtail; [5],0
same,"Plant response rating, Giant foxtail",giant foxtail; [6],0
same,Wild oats plant response rating,wild oat; [1],0
same,Wild oats plant response rating (0 to 10 scale),"wild oat; Preemergence, Rate 125 g/ha",0
same,Wild oats plant response rating,wild oat; [2],0
same,Wild oats plant response rating,wild oat; [3],0
same,Wild oats plant response rating,wild oat; [4],0
same,Wild oats plant response rating,wild oat; [5],0
same,"Plant response rating, Wild oats",wild oat; [6],0
same,Morningglory plant response rating,morningglory; [1],0
same,Morningglory plant response rating (0 to 10 scale),"morningglory; Preemergence, Rate 125 g/ha",0
same,Morningglory plant response rating,morningglory; [2],0
same,Morningglory plant response rating,morningglory; [3],0
same,Morningglory plant response rating,morningglory; [4],0
same,Morningglory plant response rating,morningglory; [5],4
same,"Plant response rating, Morningglory",morningglory; [6],8
same,Redroot pigweed plant response rating,pigweed; [1],0
same,Redroot pigweed plant response rating (0 to 10 scale),"pigweed; Preemergence, Rate 125 g/ha",0
same,Redroot pigweed plant response rating,pigweed; [2],0
same,Redroot pigweed plant response rating,pigweed; [3],0
same,Redroot pigweed plant response rating,pigweed; [4],0
same,Redroot pigweed plant response rating,pigweed; [5],0
same,"Plant response rating, Redroot pigweed",pigweed; [6],0
same,Rice plant response rating,rice; [7],0
same,Rice plant response rating,rice; [8],0
same,Rice plant response rating,rice; [9],0
same,Rice plant response rating,rice; [10],0
same,Nutsedge plant response rating,purple nutsedge; [1],0
same,Nutsedge plant response rating (0 to 10 scale),"purple nutsedge; Preemergence, Rate 125 g/ha",0
same,Nutsedge plant response rating,purple nutsedge; [2],0
same,Nutsedge plant response rating,purple nutsedge; [3],0
same,Nutsedge plant response rating,purple nutsedge; [4],0
same,Nutsedge plant response rating,purple nutsedge; [5],0
same,"Plant response rating, Nutsedge",purple nutsedge; [6],0
same,Ducksalad plant response rating,duck salad; [7],0
same,Ducksalad plant response rating,duck salad; [8],0
same,Ducksalad plant response rating,duck salad; [9],0
same,Ducksalad plant response rating,duck salad; [10],0
same,Soybean plant response rating,soybean; [1],0
same,Soybean plant response rating (0 to 10 scale),"soybean; Preemergence, Rate 125 g/ha",0
same,Soybean plant response rating,soybean; [2],0
same,Soybean plant response rating,soybean; [3],0
same,Soybean plant response rating,soybean; [4],2
same,Soybean plant response rating,soybean; [5],2
same,"Plant response rating, Soybean",soybean; [6],3
same,Crabgrass plant response rating,crabgrass; [1],0
same,Crabgrass plant response rating (0 to 10 scale),"crabgrass; Preemergence, Rate 125 g/ha",0
same,Crabgrass plant response rating,crabgrass; [2],0
same,Crabgrass plant response rating,crabgrass; [3],0
same,Crabgrass plant response rating,crabgrass; [4],0
same,Crabgrass plant response rating,crabgrass; [5],0
same,"Plant response rating, Crabgrass",crabgrass; [6],0
same,Barnyardgrass plant response rating,bamyardgrass; [7],0
same,Barnyardgrass plant response rating,bamyardgrass; [8],0
same,Barnyardgrass plant response rating,bamyardgrass; [9],0
same,Barnyardgrass plant response rating,bamyardgrass; [10],0
same,Corn plant response rating,corn; [1],0
same,Corn plant response rating (0 to 10 scale),"corn; Preemergence, Rate 125 g/ha",0
same,Corn plant response rating,corn; [2],0
same,Corn plant response rating,corn; [3],0
same,Corn plant response rating,corn; [4],0
same,Corn plant response rating,corn; [5],0
same,"Plant response rating, Corn",corn; [6],0
same,Corn plant response rating,corn; [11],0
same,Cocklebur plant response rating,cocklebur; [1],0
same,Cocklebur plant response rating (0 to 10 scale),"cocklebur; Preemergence, Rate 125 g/ha",0
same,Cocklebur plant response rating,cocklebur; [2],0
same,Cocklebur plant response rating,cocklebur; [3],0
same,Cocklebur plant response rating,cocklebur; [4],0
same,Cocklebur plant response rating,cocklebur; [5],0
same,"Plant response rating, Cocklebur",cocklebur; [6],0
same,Cocklebur plant response rating,cocklebur; [11],0
same,Velvetleaf plant response rating,velvetleaf; [1],0
same,Velvetleaf plant response rating (0 to 10 scale),"velvetleaf; Preemergence, Rate 125 g/ha",0
same,Velvetleaf plant response rating,velvetleaf; [2],0
same,Velvetleaf plant response rating,velvetleaf; [3],0
same,Velvetleaf plant response rating,velvetleaf; [4],0
same,Velvetleaf plant response rating,velvetleaf; [5],0
same,"Plant response rating, Velvetleaf",velvetleaf; [6],0

# Reference: US6737383B1, “Herbicidal oxadiazolidines” (priority 1999, dated 2004)
